US20230181482A1, “LIPIDS FOR DELIVERY OF NUCLEIC ACID SEGMENTS” (AstraZeneca AB, priority 2021, published 2023)

What was measured:
[1] = mRNA encapsulation efficiency of LNP formulations (Quant-it Ribogreen assay with Triton-X100); assay type: physicochemical; settings: N/P ratio 3:1, DMPE-PEG2000
Description: (§1) A solution of eGFP mRNA (purchased from TriLink Biotechnologies) in citrate buffer was prepared by mixing mRNA dissolved in MilliQ-water, 100 mM citrate buffer (pH 3) and MilliQ-water to give a solution of 50 mM citrate. Lipid solution in ethanol (99.5%) was prepared with four different lipid components: ionizable lipid (see Table 1); cholesterol (Sigma-Aldrich); DSPC (distearoyl phosphatidyl choline, Avanti Polar Lipids Inc); and a polymer-conjugated lipid (see Table 1). The ratio of lipids in all experiments was ionizable lipid/cholesterol/DSPC/polymer-conjugated lipid (50/38.5/10/1.5 mol %). The total concentration of lipids in all experiments was 12.5 mM.
(§2) The mRNA and lipid solutions were mixed in a NanoAssemblr (Precision Nanosystems, Vancouver, BC, Canada) microfluidic mixing system at a mixing ratio of Aq:EtOH=3:1 and a constant flow rate of 12 mL/min. The mRNA in citrate buffer solution was prepared such that, at the time of mixing the ratio between the nitrogen atoms on the ionizable lipid and phosphorus atoms (N/P ratio) on the mRNA chain was either 3:1 or 6:1 (see Table 1).
The final mRNA concentration and encapsulation efficiency percentage (% EE) was measured by Quant-it Ribogreen Assay Kit (ThermoFischer Scientific Inc.) using Triton-X100 to disrupt the LNPs. The mRNA encapsulation efficiency was determined according to the following equation: […]

[2] = LNP particle size by dynamic light scattering (Zetasizer Nano ZS); assay type: physicochemical; settings: N/P ratio 3:1, DMPE-PEG2000
Description: as §1, §2
The first 0.2-0.35 mL and the last 0.05-0.1 mL of the LNP suspension prepared were discarded while the rest of the volume was collected as the sample fraction. The size of the mRNA lipid nanoparticles was determined by dynamic light scattering measurements using a Zetasizer Nano ZS from Malvern Instruments Ltd, giving directly the z-average particle diameter. The number-weighted particle size distributions and averages were calculated using a particle refractive index of 1.45.

[3] = test system: Female BALB/c mice; assay: eGFP expression in the liver at 24 hours after intravenous administration of LNP formulations to mouse (ELISA); assay type: in vivo; settings: LNP N/P 3:1, DMPE-PEG2000
Description: Female BALB/c mice were purchased (SPF (Beijing) Laboratory Animal Technology Co. Ltd.) and on arrival were caged in groups of 4 on corncob bedding, with normal diet and were provided tap drinking water ad libitum that was purified and autoclaved before being offered to the animal. The environment was maintained at a target temperature of […] and relative humidity of 40-80%, with a 12-hour light/dark cycle. Animals were acclimatised to the housing conditions for at least 7 days prior to any experimental procedures and were approximately 6-8 weeks of age at the start of dosing
Animals were assigned to respective groups such that the mean body weights for each treatment groups will be equal. N=4 for each treatment group.
Formulations 1, 3, 4, 5, and 6 from Example 58 were each dosed intravenously: Each mouse was removed from its cage and restrained, and then dosed with a slow IV bolus of a formulation in the lateral tail vein at a dose […] of 0.3 mg/kg.
All animals were sacrificed 24 hours after dosing and flowing blood sampling the liver for the animals dosed by the IV route and the liver and muscle at the dose site for the IM dosed animals were harvested for eGFP analysis by ELISA.
Additional LNP formulations were prepared according to the procedures described in Example 46. These formulations were tested using the same protocol as described herein. The results of eGFP expression in the liver at 24 hours after intravenous administration of the formulations were summarized in Tables 3, 4, 5 and 6 below.

SMILES | % EE ([1]; Table 4) | <d>N (nm) ([2]; Table 4) | <d>Z (nm) ([2]; Table 4) | Liver eGFP protein (ng/g tissue) ([3]; Table 4, 0.3 mg/kg) | further results
CCCCCCCCCOC(=O)CCCCCC(CCCCCC(=O)OC(CCCCCCCC)CCCCCCCC)NCC1COC1 (stereo not shown) [Compound 20, 1-(heptadecan-9-yl) 13-nonyl 7-((oxetan-3-ylmethyl)amino)tridecanedioate] | 97% | 53 nm | 67 nm | 9757.7 ng/g tissue | –
CCCCCCCCC(CCCCCCCC)OC(=O)CCCCCCCC(CCCCCCCC(=O)OC(C)(C)CCCCCCCC)NC1CC2(COC2)C1 (stereo not shown) [Compound 53, 1-(heptadecan-9-yl) 17-(2-methyldecan-2-yl) 9-((2-oxaspiro[3.3]heptan-6-yl)amino)heptadecanedioate] | – | – | – | – | % EE ([1]; Table 6): 96%; <d>N (nm) ([2]; Table 6): 50 nm; <d>Z (nm) ([2]; Table 6): 65 nm; Liver eGFP protein (ng/g tissue) ([3]; Table 6, 0.3 mg/kg): 6947.2 ng/g tissue
CCCCCCCCC(CCCCCCCC)OC(=O)CCCCCCC(CCCCCCC(=O)OCCC(CCCCCCC)CCCCCCC)NC1CC2(COC2)C1 (stereo not shown) [Compound 27, 1-(heptadecan-9-yl) 15-(3-heptyldecyl) 8-((2-oxaspiro[3.3]heptan-6-yl)amino)pentadecanedioate] | 97% | 55 nm | 98 nm | 4982.6 ng/g tissue | –
CCCCCCCCC(C)OC(=O)CCCCCCCC(CCCCCCCC(=O)OC(CCCCCCCC)CCCCCCCC)NCC1CCOC1 (stereo not shown) [Compound 36, 1-(decan-2-yl) 17-(heptadecan-9-yl) 9-(((tetrahydrofuran-3-yl)methyl)amino)heptadecanedioate] | – | – | – | – | % EE ([1]; Table 5): 96%; <d>N (nm) ([2]; Table 5): 57 nm; <d>Z (nm) ([2]; Table 5): 73 nm; Liver eGFP protein (ng/g tissue) ([3]; Table 5, 0.3 mg/kg): 6133.5 ng/g tissue
CCCCCC(CCCCC)CCOC(=O)CCCCCCCCC(CCCCCCCCC(=O)OCCC(CCCCC)CCCCC)NCC1CCOCC1 [Compound 17, bis(3-pentyloctyl) 10-(((tetrahydro-2H-pyran-4-yl)methyl)amino)nonadecanedioate] | 93% | 77 nm | 96 nm | 6831.3 ng/g tissue | –
CCCCCCCCC(CCCCCCCC)OC(=O)CCCCCCCC(CCCCCCCC(=O)OCC1CC1CCCCCC)NCC1COC1 (stereo not shown) [Compound 51, 1-(heptadecan-9-yl) 17-((2-hexylcyclopropyl)methyl) 9-((oxetan-3-ylmethyl)amino)heptadecanedioate] | – | – | – | – | % EE ([1]; Table 6): 95%; <d>N (nm) ([2]; Table 6): 53 nm; <d>Z (nm) ([2]; Table 6): 67 nm; Liver eGFP protein (ng/g tissue) ([3]; Table 6, 0.3 mg/kg): 3473.8 ng/g tissue
CCCCCCCCC(CCCCCCCC)OC(=O)CCCCCCCC(CCCCCCCC(=O)OCC(CCCCCCC)CCCCCCC)NC1CC2(COC2)C1 (stereo not shown) [Compound 33, 1-(heptadecan-9-yl) 17-(2-heptylnonyl) 9-((2-oxaspiro[3.3]heptan-6-yl)amino)heptadecanedioate] | 97% | 53 nm | 67 nm | 1056.2 ng/g tissue | –
CCCCCC(CCCCC)CCOC(=O)CCCCCCCC(CCCCCCCC(=O)OCCC(CCCCC)CCCCC)NCC1CCCO1 (stereo not shown) [Compound 8, bis(3-pentyloctyl) 9-(((tetrahydrofuran-2-yl)methyl)amino)heptadecanedioate] | – | – | – | – | % EE ([1]; Table 3): 95%; <d>N (nm) ([2]; Table 3): 61 nm; <d>Z (nm) ([2]; Table 3): 76 nm; Liver eGFP protein (ng/g tissue) ([3]; Table 3, 0.3 mg/kg): 6124.2 ng/g tissue
CCCCCCCCC(CCCCCCCC)OC(=O)CCCCCCCC(CCCCCCCC(=O)OC(CCCCCCCC)CCCCCCCC)NC1CC2(COC2)C1 [Compound 31, Di(heptadecan-9-yl) 9-((2-oxaspiro[3.3]heptan-6-yl)amino)heptadecanedioate] | 94% | 47 nm | 62 nm | 1319.3 ng/g tissue | –
CCCCCCCCC(CC)OC(=O)CCCCCCCC(CCCCCCCC(=O)OC(CCCCCCCC)CCCCCCCC)NCC1CCOCC1 (stereo not shown) [Compound 39, 1-(heptadecan-9-yl) 17-(undecan-3-yl) 9-(((tetrahydro-2H-pyran-4-yl)methyl)amino)heptadecanedioate] | – | – | – | – | % EE ([1]; Table 5): 97%; <d>N (nm) ([2]; Table 5): 55 nm; <d>Z (nm) ([2]; Table 5): 69 nm; Liver eGFP protein (ng/g tissue) ([3]; Table 5, 0.3 mg/kg): 3383.8 ng/g tissue
CCCCCCCCC(CCCCCCCC)OC(=O)CCCCCCCC(CCCCCCCC(=O)OCC(C)CCCCCCC)NC1CC2(COC2)C1 (stereo not shown) [Compound 22, 1-(heptadecan-9-yl) 17-(2-methylnonyl) 9-((2-oxaspiro[3.3]heptan-6-yl)amino)heptadecanedioate] | – | – | – | – | % EE ([1]; Table 5): 95%; <d>N (nm) ([2]; Table 5): 63 nm; <d>Z (nm) ([2]; Table 5): 90 nm; Liver eGFP protein (ng/g tissue) ([3]; Table 5, 0.3 mg/kg): 4570.6 ng/g tissue
CCCCCCCCC(CCCCCCCC)OC(=O)CCCCCCCC(CCCCCCCC(=O)OC(CC)CCCCC)NC1CC2(COC2)C1 (stereo not shown) [Compound 46, 1-(heptadecan-9-yl) 17-(octan-3-yl) 9-((2-oxaspiro[3.3]heptan-6-yl)amino)heptadecanedioate] | – | – | – | – | % EE ([1]; Table 6): 93%; <d>N (nm) ([2]; Table 6): 54 nm; <d>Z (nm) ([2]; Table 6): 73 nm; Liver eGFP protein (ng/g tissue) ([3]; Table 6, 0.3 mg/kg): 15932.1 ng/g tissue
CCCCCCC(CCCCCC)COC(=O)CCCCCCCC(CCCCCCCC(=O)OCC(CCCCCC)CCCCCC)NC1CC2(COC2)C1 [Compound 34, Bis(2-hexyloctyl) 9-((2-oxaspiro[3.3]heptan-6-yl)amino)heptadecanedioate] | 96% | 51 nm | 68 nm | 11015.4 ng/g tissue | –
CCCCCCCCC(CCCCCCCC)OC(=O)CCCCCCCC(CCCCCCCCCC(=O)OC(C)CCCCCC)NC1CC2(COC2)C1 (stereo not shown) [Compound 55, 1-(heptadecan-9-yl) 19-(octan-2-yl) 9-((2-oxaspiro[3.3]heptan-6-yl)amino)nonadecanedioate] | – | – | – | – | % EE ([1]; Table 6): 93%; <d>N (nm) ([2]; Table 6): 62 nm; <d>Z (nm) ([2]; Table 6): 77 nm; Liver eGFP protein (ng/g tissue) ([3]; Table 6, 0.3 mg/kg): 18695.5 ng/g tissue
CCCCCC(CCCCC)CCOC(=O)CCCCCCCCC(CCCCCCCCC(=O)OCCC(CCCCC)CCCCC)NCC1COC1 [Compound 18, bis(3-pentyloctyl) 10-((oxetan-3-ylmethyl)amino)nonadecanedioate] | 97% | 67 nm | 86 nm | 6817.5 ng/g tissue | –
CCCCCCCCC(C)OC(=O)CCCCCCCC(CCCCCCCC(=O)OC(CCCCCCCC)CCCCCCCC)NC1CC2(COC2)C1 (stereo not shown) [Compound 32, 1-(decan-2-yl) 17-(heptadecan-9-yl) 9-((2-oxaspiro[3.3]heptan-6-yl)amino)heptadecanedioate] | 94% | 56 nm | 72 nm | 16518.2 ng/g tissue | –
CCCCCCCCCOC(=O)CCCCCC(CCCCCC(=O)OC(CCCCCCCC)CCCCCCCC)NC1CC2(COC2)C1 (stereo not shown) [Compound 19, 1-(heptadecan-9-yl) 13-nonyl 7-((2-oxaspiro[3.3]heptan-6-yl)amino)tridecanedioate] | 92% | 57 nm | 75 nm | 9938.1 ng/g tissue | –
CCCCCCCCCOC(=O)CCCCCCC(CCCCCCC(=O)OC(CCCCCCCC)CCCCCCCC)NC1CC2(COC2)C1 (stereo not shown) [Compound 24, 1-(heptadecan-9-yl) 15-nonyl 8-((2-oxaspiro[3.3]heptan-6-yl)amino)pentadecanedioate] | 94% | 52 nm | 71 nm | 748.9 ng/g tissue | –
CCCCCCCCC(C)OC(=O)CCCCCCCC(CCCCCCCC(=O)OC(CCCCCCCC)CCCCCCCC)NCC1COC1 (stereo not shown) [Compound 37, 1-(decan-2-yl) 17-(heptadecan-9-yl) 9-((oxetan-3-ylmethyl)amino)heptadecanedioate] | – | – | – | – | % EE ([1]; Table 5): 93%; <d>N (nm) ([2]; Table 5): 47 nm; <d>Z (nm) ([2]; Table 5): 60 nm; Liver eGFP protein (ng/g tissue) ([3]; Table 5, 0.3 mg/kg): 1225.5 ng/g tissue
